For data set [1], the system named is mucosal damage.
The subject of data set [2] is minimal muscular or neurological impairment. The experiment in a line: Test 1: Acute toxicity, minimal motor impairment (rotorod), mice i.p. As to conditions: for Rotorod Toxicity: class symbol = dose. It counts as in vivo. How it is done: (§1) Most of the prodrugs and mutual prodrugs of anticonvulsants described in this invention were evaluated at National Institute of Neurological Disorders and Stroke (NINDS), National Institute of Health (NIH), under their Antiepileptic Screening Program (ASP).
(§2) Test 1 is an initial screening for anticonvulsant activity in the Maximal Electroshock Test (MES) and Subcutaneous Metrazol Seizure Threshold Test (scMET) models combined with an initial assessment of toxicity (TOX) in mice via i.p. injection (see further explanation below). The data for each condition is presented as N/F, where N = number of animals protected from seizure and F = number of animals tested. For test of toxicity, N = number of animals displaying toxic effects and F = number of animals tested. Any deaths occurring during the test were recorded.
In general terms: The rotarod test checks motor coordination on a turning rod.

For data set [3], the system named is MES-induced seizures. The experiment in a line: Test 2: MES, rats p.o. It counts as in vivo. As to conditions: 30 mg/kg. The source says:
(§3) Maximal Electroshock Test (MES): The MES is a model for generalized tonic-clonic seizure and provides an indication of a compound's ability to prevent seizure spread when all neuronal circuits in the brain are maximally active. These seizures are highly reproducible and electro-physiologically consistent with human seizures. For all tests based on MES convulsions, 60 Hz of alternating current (50 mA in mice) is delivered for […] by corneal electrodes, which have been primed with an electrolyte solution containing an anesthetic agent (0.5% tetracaine hydrochloride). Mice were tested at various intervals following doses of 30, 100 and 300 mg/kg of test compound given by i.p. injection of a volume of 0.01 mL/g. Other doses can be used if indicated by previously known pharmacology. An animal is considered "protected" from MES-induced seizures upon abolition of the hind-limb tonic extensor component of the seizure.
(§4) Rats received test compounds orally.

In data set [4] the test system is clonic seizures. The data set is described as follows: Test 1: Subcutaneous Metrazol Seizure Threshold Test (scMET), mice i.p. The conditions noted are these: class symbol = dose. In kind it is in vivo. How it is done:
as §1, §2
(§5) Subcutaneous Metrazol Seizure Threshold Test (scMET): Subcutaneous injection of the convulsant metrazol produces clonic seizures in laboratory animals. […] Animals were pretreated with various doses of the test compound given by i.p. injection. At the previously determined Time to Peak Effect (TPE) of the test compound, the dose of metrazol which will produce convulsions in 97% of animals (CD97: 85 mg/kg in mice) was injected into a loose fold of skin in the midline of the neck. The animals were placed in isolation cages to minimize stress and observed for the next 30 minutes for the presence or absence of a seizure. An episode of clonic spasms, approximately […], of the fore and/or hind limbs, jaws, or vibrissae is taken as the end point.

Data set [5] relates to MES-induced seizures. The data set is described as follows: Test 1: Maximal Electroshock Test (MES), mice i.p. In kind it is in vivo. The conditions noted are these: for MES: class symbol = dose. How it is done: as §1, §2, §3
For orientation: The maximal electroshock test induces tonic seizures with an electrical stimulus.

In data set [6] the test system is Neurological toxicity. The data set is described as follows: Test 2: neurological toxicity, rats p.o. It counts as in vivo. As to conditions: 30 mg/kg.
Excerpt: as §4

Data set [7] concerns Neurological toxicity. The experiment in a line: Test 3: neurological toxicity, rats p.o. In kind it is in vivo.
Excerpt: as §4
(§6) Table 1: Primary Screening (Test 1) data for Anticonvulsant Activity and Neurotoxicity in Mice (test compound administered i.p.)

For data set [8], the system named is MES-induced seizures. The experiment in a line: Test 3: MES quantification (time to peak effect, ED50), rats p.o. The conditions noted are these: for Biological Response MES (number of animal protected/number of animal tested): time 6 h. It counts as in vivo.
Data set [9] relates to clonic seizures. The data set is described as follows: Test 3: scMET, rats p.o. It counts as in vivo. As to conditions: 50 mg/kg. As for the experimental part:
as §5, §4, §6

Values joined by “and” are separate entries in the source; they are usually repeats but may differ in a detail not shown here. Identical values can stand only once.

With `CC(=O)Oc1ccccc1C(=O)O` [Aspirin], in data set [1] (rat, in vivo, po, 100 mg/kg), the “haemorrhagic lesions (area), Mean ± S.E.M.” value turned out to be 2.7 ± 0.9 mm^2 and the “ulcer development (in words)” value is given as “severe haemorrhagic lesions”. Moreover, in data set [1] (rats, oral, high equivalent doses compared to aspirin), the “gastrointestinal safety (summary in words)” value is recorded as “caused severe ulcers”.

For `Nc1nc(NC(=O)OCCSSCCOC(=O)NCC2(CC(=O)O)CCCCC2)nnc1-c1cccc(Cl)c1Cl` [I-AA-MPD11], in data set [2], the “toxicity (Test 1, in words)” value is “no or mild toxicity”. Also, the “Rotorod Toxicity (number of animals exhibiting toxicity/number of animals tested)” value in data set [2] (300 mg/kg (+), 0.5 h) is recorded as 1/4. In addition, the “Rotorod Toxicity” value in [2] (4.0 h) is on record as “- (- = no activity or no toxicity at 300 mg/kg)”. Moreover, the “MES (number of animal protected/number of animal tested)” value was 0/4 in data set [3] (0.50 h); 2/4 in data set [3] (1.00 h); 1/4 in [3] (2.00 h); 4/4 in data set [3] (4.00 h); 3/3 in data set [5] (100 mg/kg (++), 4.0 h); 1/1 in [5] (300 mg/kg (+), 0.5 h). Moreover, in data set [5] (300 mg/kg (+), 4.0 h), the “MES (number of animal protected/number of animal tested)” value is 1/1. Moreover, the ScMET entry in data set [4] (0.5 h) and in data set [4] (4.0 h) was “- (- = no activity or no toxicity at 300 mg/kg)” throughout. In data set [5], the “activity in MES (Test 1, in words)” value is recorded as “active in MES”. The “Toxicity (number of animals exhibiting toxicity/number of animals tested)” value in [6] (0.50 h), in data set [6] (1.00 h), in data set [6] (2.00 h) and in [6] (4.00 h) was 0/4 each time.

Turning to `CCOC(=O)CC1(CNC(=O)OCCSSCCOC(=O)Nc2nnc(-c3cccc(Cl)c3Cl)c(N)n2)CCCCC1` [I-AA-MPD12], in [2], the “toxicity (Test 1, in words)” value was “no or mild toxicity”. In addition, the “Rotorod Toxicity” value in data set [2] (0.5 h) and in data set [2] (4.0 h) was “- (- = no activity or no toxicity at 300 mg/kg)” each time. The “MES (number of animal protected/number of animal tested)” value in data set [3] (0.50 h) is on record as 0/4; in data set [3] (1.00 h) it was 0/4; in data set [3] (2.00 h), 1/4; in data set [3] (4.00 h) it was 3/4; in data set [5] (100 mg/kg (++), 4.0 h) it was 3/3; in data set [5] (100 mg/kg (++), 6 hours after dosing), 1/3. For the same molecule, the “MES (number of animal protected/number of animal tested)” value in [5] (300 mg/kg (+), 4.0 h) is recorded as 1/1. The “toxicity (in words)” value in [7] (50 mg/kg) is “none of the animals exhibited toxicity”; in data set [7] (100 mg/kg), “one of eight animals exhibited mild ataxia”. Besides, the “Toxicity (number of animals exhibiting toxicity/number of animals tested)” value in data set [7] (50 mg/kg, 1.0 h) is 0/4 (5 0); in data set [7] (50 mg/kg, 2.0 h) it was 0/4 (50); in data set [7] (50 mg/kg, 4.0 h), 0/4 (50); in data set [7] (50 mg/kg, 6.0 h), 0/4 (50); in data set [7] (50 mg/kg, 8.0 h), 0/4 (50); in [7] (50 mg/kg, 24 h), 0/4 (50). Also, the “Toxicity (number of animals exhibiting toxicity/number of animals tested)” value in data set [7] (100 mg/kg, 8.0 h, mild ataxia only (footnote h)) is 1/8 (100)^h; in data set [6] (0.50 h), 0/4; in [6] (1.00 h) it was 0/4; in [6] (2.00 h), 0/4; in data set [6] (4.00 h) it was 0/4. In addition, the ScMET entry in [4] (0.5 h) and in data set [4] (4.0 h) was “- (- = no activity or no toxicity at 300 mg/kg)” each time. Moreover, in data set [5], the “activity in MES (Test 1, in words)” value is “active in MES”. For the same molecule, the MES result in [5] (0.5 h) is “- (- = no activity or no toxicity at 300 mg/kg)”; in data set [5] (at 6 hours after dosing (footnotes g, m)), “++ (++ = activity or toxicity at 100 mg/kg)”. In addition, the “Time to Peak Effect MES (number of animal protected/number of animal tested)” value is listed as 2/4 in data set [8] (15 mg/kg, 6.0 h); 1/4 in [8] (15 mg/kg, 8.0 h); 0/4 in data set [8] (30 mg/kg, 0.5 h); 0/4 in data set [8] (30 mg/kg, 1.0 h); 1/4 in data set [8] (30 mg/kg, 2.0 h); 3/4 in [8] (30 mg/kg, 4.0 h). The “Time to Peak Effect MES (number of animal protected/number of animal tested)” value in data set [8] (30 mg/kg, 6.0 h) is 4/4; in data set [8] (30 mg/kg, 8.0 h) it was 4/4; in [8] (30 mg/kg, 24 h), 2 out of 4 and 2/4. Besides, in data set [8] (MES), the “potency compared with parent drug lamotrigine (in words)” value is “less potent than lamotrigine”. For the same molecule, the ED50 (in general, the dose that gives a 50% effect, or the effect in half of the subjects) in [8] (MES model, at the compound's time of peak effect (4, 6 or 8 h)) amounted to 17 mg/kg. Further, in [8] (MES, 30 mg/kg, up to 24 h), the “duration of protection (in words)” value was “significant extension in the duration of protection”. The “time to peak effect” value in data set [8] (MES, dose of 30 mg/kg) was in the range of 6.0 to 8.0 h. Moreover, the “Biological Response MES (number of animal protected/number of animal tested)” value in [8] (dose 7.5 mg/kg) is reported as 0/8; in [8] (dose 15 mg/kg), 5/8; in [8] (dose 30 mg/kg) it was 7/8; in [8] (dose 60 mg/kg), 7/8. For the same molecule, the “Time to Peak Effect ScMET (number of animal protected/number of animal tested)” value in data set [9] (1.0 h) is 1/4; in data set [9] (2.0 h), 0/4; in data set [9] (4.0 h), 0/4; in [9] (6.0 h), 1/4; in data set [9] (8.0 h), 2/4; in data set [9] (24 h) it was 0/4.

Source of the values: patent EP2266622A2, “Prodrugs containing novel bio-cleavable linkers” (Piramal Life Sciences Limited, priority 2004, dated 2006).
